Data taken from PubChem BioAssay AID2305 (GlaxoSmithKline (GSK), 2010).
“And” between values parts separate entries of the source, which are not always exact repeats. Equal entries are not always repeated.

These compounds were tested on P. falciparum 3D7 growth, pLDH absorbance (assay: P. falciparum 3D7 growth inhibition, dose response, strain 3D7 (AID 2305)).
`COc1ccc2ncc(F)c(CCN3CCC[C@H](CNCc4ccc5c(n4)NC(=O)CS5)C3)c2n1` showed an IC50 of 970 nM.
In the case of `CN1CCCC(CN2CCN(Cc3ccc(-c4ccc(-c5nc6ccccc6[nH]5)s4)cc3)CC2)C1` (stereo unspecified), the IC50 is reported as 130 nM.
`COc1cc(NCC(CN)Cc2ccc3c(c2)OCO3)nc2ccccc12` (stereo unspecified) gave an IC50 of 820 nM.
In the case of `CC(C)(C)c1ccccc1SC1=C(O)CC2(CCNCC2)OC1=O`, the IC50 is reported as 880 nM.
In the case of `CCn1ccc2c3c(N)nc(N)nc3ccc21`, the IC50 is reported as 310 nM.
`N=C1C=C(N)C(=O)c2ccccc21` gave an IC50 of 1050 nM.
In the case of `CC[C@H](C)CNC(=O)c1cncc(-c2ccc(CN3CCC(N4CCCC4)CC3)cc2)c1`, the IC50 is reported as 970 nM.
For `O=C(c1cncc(-c2ccccc2)c1)N(Cc1cncn1Cc1ccccc1F)CC1CC1`, the IC50 was 800 nM.
With `O=C(N[C@@H](CC1CCCCC1)C(=O)NC1CCCCC1)c1ccc(O)c(-c2cccc(C(F)(F)F)c2)c1` the IC50 was 750 nM.
With `O=C(NCCc1ccc(Cl)c(Cl)c1)c1ccc(CNC(=O)c2ccc(O)c(-c3ccc(Cl)c(Cl)c3)c2)cc1` the IC50 was 810 nM.
`Oc1ccc2nc(NCCCc3ccccc3)nc(NCCCc3ccccc3)c2c1` showed an IC50 of 400 nM.
Work on `CNCCNCc1cccc(-c2ccc(-c3nc4ccccc4[nH]3)cc2)c1` yielded an IC50 of 740 nM.
`O=c1c(Br)ccccc1Br` was tested, and the IC50 was 790 nM.
In the case of `Cc1ccc(CNC(=O)[C@H](Cc2ccccc2)Nc2cc(C)nc(Nc3ccccc3)n2)cc1`, the IC50 is reported as 850 nM.
In the case of `COc1ccc(Cn2c(SCc3ccc(C)cc3)nc3cc(OC)c(OC)cc3c2=N)cc1Cl`, the IC50 is reported as 980 nM.
In the case of `Brc1cnc(NC2=NCCN2)c(Br)c1`, the IC50 is reported as 340 nM.
Work on `N#Cc1ccc(C(=O)NC2CCN(CCCCCNC(=O)/C=C/c3ccc(Cl)c(Cl)c3)CC2)cc1` yielded an IC50 of 840 nM.
For `CCc1ccccc1NC(=O)CN1CCN(c2ncnc3scc(-c4ccc(F)cc4)c23)CC1`, the IC50 was 700 nM.
`CCOc1c(CNCCCNc2nc3ccccc3[nH]2)cc(Br)cc1OC` was tested, and the IC50 was 560 nM.
`Cn1cccc1CCNCc1ccc(-c2cccc(-c3nc4ccc(F)cc4[nH]3)c2)cc1` showed an IC50 of 1220 nM.
`C[C@H]1CN(Cc2cccc(-c3cc(CNC(=O)c4cccc(C(=O)c5ccc(Cl)c(Cl)c5)c4)ccc3F)c2)CCN1` was tested, and the IC50 was 1140 nM.
In the case of `CS(=O)(=O)N(c1ccccc1)c1cc(C(=O)N[C@@H](Cc2ccccc2)[C@H](O)CNC2CC2)cc(N2CCCC2=O)c1`, the IC50 is reported as 300 nM.
Compound `Cc1cc2c(cc1C(F)(F)F)N(C(=O)Nc1ccc(C(=O)NC3CCN(Cc4ccccc4)C3)cc1)CC2` (stereo unspecified) has an IC50 of 780 nM.
`CC(C)CNCc1cccc(-c2ccccc2CN(C(=O)Nc2ccccc2)C2CCN(Cc3ccccc3)CC2)c1` showed an IC50 of 640 nM.
With `CS(=O)(=O)c1ccc(CCNCc2ccc(-c3ccc(CN(C(=O)C4CC(=O)c5ccccc54)C4CCN(Cc5ccccc5)CC4)cc3)nc2)cc1` (stereo unspecified) the IC50 was 590 nM.
Compound `Cc1cccc2[nH]c(-c3cccc(-c4ccc(NC(=O)C(C)CN5CCN(C)CC5)cc4)c3)nc12` (stereo unspecified) has an IC50 of 180 nM.
For `CNS(=O)(=O)c1ccc(NC(=O)c2cc(-c3cccnc3)nc3ccc(Br)cc23)cc1`, the IC50 was 910 nM.
`O=C(Nc1cccc(-c2cccc(-c3nc4ccccc4[nH]3)c2)c1)Nc1ccc(F)c(F)c1F` gave an IC50 of 60 nM.
For `Clc1cc(Nc2ncnc3cc(C#C[C@H]4CCCN4)sc23)cc2[nH]c(Cc3ccccc3)nc12`, the IC50 was 850 nM.
`CN(C)CC(=O)Nc1ccc(Nc2nccc(NCC(O)c3ccccc3)n2)cc1` (stereo unspecified) gave an IC50 of 970 nM.
In the case of `Nc1c(Cl)cc(C(O)CNCCCCCCOCCC=C2CCOCC2)cc1Cl` (stereo unspecified), the IC50 is reported as 630 nM.
In the case of `COc1cccc(CNC[C@@H](O)[C@H](Cc2ccccc2)NC(=O)c2cc(NC(C)C)cc(N3CCCCS3(=O)=O)c2)c1`, the IC50 is reported as 780 nM.
Compound `CC(C)Oc1cc(-c2ccc(S(C)(=O)=O)cc2)nc(N(Cc2cccc(F)c2F)Cc2cccc(F)c2F)n1` has an IC50 of 120 nM.
Compound `O=C(CCc1ccco1)NC1CCN(CC2(c3ccc(Cl)cc3)CCC2)CC1` has an IC50 of 1450 nM.
Work on `CN(C)c1ccc(C=Cc2ccc3ccccc3n2)c(Cl)c1` yielded an IC50 of 440 nM.
For `COc1ccc(CCNCCCCNCCc2ccc(OC)c3ccccc23)c2ccccc12`, the IC50 was 450 nM.
For `Cc1noc(-c2ccc3c(c2)CCN(CCC2CCC(NC(=O)/C=C/c4ccc(F)cc4)CC2)CC3)n1` (stereo unspecified), the IC50 was 1030 nM.
`O=C(/C=C/c1ccc(Cl)c(Cl)c1)NCCCCCN1CCC(NC(=O)Nc2ccc(Oc3ccccc3)cc2)C1` (stereo unspecified) gave an IC50 of 590 nM.
`Cn1nccc1C(=O)NCCNCc1ccc(-c2cccc(-c3nc4ccccc4[nH]3)c2)cc1` gave an IC50 of 140 nM.
For `CC(C)c1ccc(S(=O)(=O)N(c2ccc3c(c2)OCO3)C2CCN(Cc3ccccc3)C2)cc1` (stereo unspecified), the IC50 was 350 nM.
`Cc1cc(OCC(=O)Nc2ccc(-c3nc4ccccc4[nH]3)cc2)cc(C)c1Cl` was tested, and the IC50 was 740 nM.
`COc1cccc(OC)c1OCCCON1C(N)=NC(N)=NC1(C)C` showed an IC50 of 10 nM.
`COc1cc2ncnc(Nc3ccc(OCc4ccccc4)c(OCc4ccccc4)c3)c2cc1OC` was tested, and the IC50 was 740 nM.
For `FC(F)(F)c1ccc2nc(-c3ccc(-c4cccc(CNCC5CCCO5)c4)s3)[nH]c2c1` (stereo unspecified), the IC50 was 370 nM.
In the case of `COc1ccc2nc(NC3=NC4(c5ccccc5)N=C(Nc5nc6ccc(OC)cc6[nH]5)NC4(c4ccccc4)N3)[nH]c2c1` (stereo unspecified), the IC50 is reported as 200 nM.
For `COc1ccc2nccc(NC(=O)N3CCC(NCc4cc5ccccc5[nH]4)CC3)c2n1`, the IC50 was 560 nM.
With `Cc1c(C(=O)Nc2cc(Sc3ccc(F)cc3)cc([N+](=O)[O-])c2)sc2ncn(Cc3cccc(F)c3)c(=O)c12` the IC50 was 720 nM.
Compound `CC[C@H](C)CNC(=O)c1cncc(-c2ccc(CNCCCc3ccccc3)cc2)c1` has an IC50 of 730 nM.
Work on `c1ccc(COc2ccnc(NCCCOc3cccc(CN4CCCCC4)c3)c2)cc1` yielded an IC50 of 990 nM.
`O=C(Nc1cccc(C(F)(F)F)c1)c1cccc2[nH]c(C(F)(F)F)nc12` showed an IC50 of 640 nM.
Compound `CN(C)C(CNC(=O)c1cc(-c2ccncc2)c(-c2cc3ccccc3[nH]2)o1)c1ccccc1` (stereo unspecified) has an IC50 of 840 nM.
`Cc1[nH]cnc1CSCCNC(N)=NCCCCCCCCN=C(N)NCCSCc1nc[nH]c1C` was tested, and the IC50 was 270 nM.
`CC(C)Cn1c(Sc2ccc(C#N)c([N+](=O)[O-])c2)nnc1-c1cccc(Cl)c1` showed an IC50 of 300 nM.
With `CNCCNCc1ccc(-c2ccc(-c3nc4ccc(F)cc4[nH]3)cc2)cc1` the IC50 was 390 nM.
`Cc1ccc(O)cc1Nc1ccnc2cc(-c3ccc(CN4CCCCC4)o3)ccc12` gave an IC50 of 170 nM.
`COc1ccc(-n2ncc(C(=O)N3CCC4(C3)C(=O)N(c3ccccc3)c3ccccc34)c2C)cc1` (stereo unspecified) gave an IC50 of 930 nM.
Compound `COc1ccc(N2CCN(c3nc(Nc4ccc(NC(C)=O)cc4)nc(N4CCCC4)n3)CC2)cc1` has an IC50 of 980 nM.
With `Cc1sc2ncnc(Sc3nc4ccccc4[nH]3)c2c1C` the IC50 was 260 nM.
In the case of `Cc1ccc2nc(Cl)c3cc(C(=O)NCCCN4CCCC4)sc3c2c1`, the IC50 is reported as 1140 nM.
With `CCc1c[nH]c2c(N3CCCC3=O)cc(C(=O)N[C@@H](Cc3ccccc3)[C@H](O)CNC(C)(C)c3cccc(C(F)(F)F)c3)cc12` the IC50 was 120 nM.
In the case of `O=C1OC2(CN1CC1CCN(Cc3ccc(O)c(Cl)c3)CC1)c1ccccc1-c1ccccc12`, the IC50 is reported as 760 nM.
`C=CCOc1ccc(-c2c(C)[nH]c(C)c(Br)c2=O)cc1` gave an IC50 of 280 nM.
For `CC(CN(C)C)C(=O)Nc1ccc(-c2ccc(-c3nc4ccc(F)cc4[nH]3)cc2)cc1` (stereo unspecified), the IC50 was 770 nM.
`Cc1ccc(C)c(C=CC(=O)NC2CCC(CN3CCC(c4c[nH]c5ccccc45)CC3)CC2)c1` (stereo unspecified) was tested, and the IC50 was 760 nM and 700 nM.
`CC1CCCCN1S(=O)(=O)c1ccc(NC(=O)c2cc(-c3ccccc3O)n[nH]2)cc1` (stereo unspecified) gave an IC50 of 760 nM.
In the case of `COc1ccc(NC(=O)N2CCCN(CCCCCNC(=O)/C=C/c3ccc(C(F)(F)F)cc3)CC2)cc1Cl`, the IC50 is reported as 980 nM.
`CCCC(=O)Nc1ccc(OCCCN(Cc2ccccc2OC(F)(F)F)c2ccc(C#N)c(C(F)(F)F)c2)cc1` was tested, and the IC50 was 600 nM.
Compound `O=C(NCCCCN1CCC(c2ccc([N+](=O)[O-])cc2)CC1)c1ccc(NC(=O)c2ccc(Cl)cc2)cc1` has an IC50 of 760 nM.
With `COC(=O)c1cccc(CNCc2cccc(-c3ccc(-c4nc5c(C)cccc5[nH]4)cc3)c2)c1` the IC50 was 320 nM.
For `O=S(=O)(Nc1cc2c(cc1O)CCNCC2)c1ccc(-c2ccc(Cl)cc2)cc1`, the IC50 was 980 nM.
With `C=C(C)Cn1cc(C2CCN(CCCCNC(=O)c3sc(-c4ccc(Cl)cc4Cl)nc3CO)CC2)c2ccccc21` the IC50 was 1150 nM.
Compound `CCOc1ccc(NC(=O)c2cn3nc(-c4ccc(OCC)cc4)cc3nc2C2CCNCC2)cc1` has an IC50 of 510 nM.
`COc1ccc(-c2cccc(NC(=O)c3cccc(C#N)c3)c2)cc1CN1CCN(C)CC1` was tested, and the IC50 was 930 nM.
With `CCCCSc1ccc(CNCCCCCCNCc2ccc(SCCCC)c3ccccc23)c2ccccc12` the IC50 was 630 nM.
In the case of `Fc1ccc2nc(Nc3nc(-c4ccccn4)cs3)sc2c1`, the IC50 is reported as 560 nM.
With `COc1cc2c(cc1S(=O)(=O)c1ccc(COc3ccc(C(F)(F)F)cc3)cc1)CNCC2` the IC50 was 750 nM.
`COc1ccc2nc(-c3ccccc3)cc(NN=Cc3ccc([N+](=O)[O-])o3)c2c1` was tested, and the IC50 was 200 nM.
`CN1CCN(CC(=O)Nc2ccc(-c3ccc(-c4nc5ccccc5[nH]4)s3)cc2)CC1` was tested, and the IC50 was 300 nM.
Compound `CNS(=O)(=O)CCNCc1ccc(-c2ccc3ncnc(Nc4ccc(OCc5ccccc5)cc4)c3c2)o1` has an IC50 of 730 nM.
`Brc1cc(Br)c2c(c1)C(NCCCNC1CCNc3c(Br)cc(Br)cc31)CCN2` (stereo unspecified) showed an IC50 of 820 nM.
`COc1ccc2nccc(N(C)CC3(O)CCN(CC(O)c4ccc5c(c4)NC(=O)CS5)CC3)c2n1` (stereo unspecified) was tested, and the IC50 was 590 nM.
In the case of `COc1cccc(Nc2nc(Nc3cccc(C#N)c3)cc(-c3ccncc3)n2)c1`, the IC50 is reported as 760 nM.
`CCCN(CC(=O)NCCc1ccccc1)c1ccc(C#N)c2ccccc12` showed an IC50 of 500 nM.
`CC(=O)Nc1cccc(CNCc2ccc(-c3cnc(N4CCCC(C)(C)C4)nc3)cc2)c1` gave an IC50 of 820 nM.
With `COc1ccccc1N1CCN(CCCCNC(=O)c2ccc(NC(=O)c3cc(Cl)cc(Cl)c3)cc2)CC1` the IC50 was 460 nM.
`Cc1cc(N2CCCN(C)CC2)nc(Nc2ccc(Cl)cc2)n1` gave an IC50 of 800 nM.
`N#CCc1ccc(Nc2nccc(Nc3ccc(Oc4ccccc4)cc3)n2)cc1` was tested, and the IC50 was 810 nM.
For `Cc1cccc2[nH]c(-c3cccc(-c4cccc(C(=O)NCCc5cn(C)cn5)c4)c3)nc12`, the IC50 was 590 nM.
`CCNc1cc(C(=O)N[C@@H](Cc2ccccc2)[C@H](O)CN[C@H](C)C(C)(C)C)cc(N2CCCCS2(=O)=O)c1` showed an IC50 of 820 nM.
For `CN(C)CCCNCc1ccc(-c2ccc(F)c(Cl)c2)o1`, the IC50 was 800 nM.
For `FC(F)(F)c1ccc2nc(-c3ccc(-c4cccc(CN5CCC(CCN6CCCCC6)CC5)c4)cc3)[nH]c2c1`, the IC50 was 150 nM.
For `Cc1[nH]c2ccccc2c1C1=CCN(C[C@H]2C[C@@H]2C(=O)c2ccccc2)CC1`, the IC50 was 350 nM.
Compound `c1cc(CNC2Cc3ccc(-c4cccs4)cc3C2)cc(-n2ccnc2)c1` (stereo unspecified) has an IC50 of 590 nM.
Work on `Cc1ccc2nc(C)cc(NN=Cc3ccc([N+](=O)[O-])cc3)c2c1` yielded an IC50 of 790 nM.
`Fc1cccc(COc2ccc(Nc3ncnc4sc(C#CCNC5CCCC5)cc34)cc2Cl)c1` gave an IC50 of 780 nM.
For `Cc1cccc2[nH]c(-c3ccc(-c4cccc(NC(=O)C(=O)c5cccn5C)c4)cc3)nc12`, the IC50 was 980 nM.
